Reference: patent publication US9346761B2, “Arginine methyltransferase inhibitors and uses thereof” (Epizyme, Inc., priority 2013, dated 2016)

Experiments:
Full-length human PRMT3 = target: T1, Full-length human PRMT3 (Homo sapiens, UniProt O60678); test: PRMT3 biochemical assay (3H-SAM Flashplate, peptide substrate)
T1 construct: GST-tagged PRMT3; made in house; host or cells: E. coli BL21(DE3) Gold (pGEX-KG)
Source text: (§1) General Materials. S-adenosylmethionine (SAM), S-adenosylhomocysteine (SAH), bicine, Tween20, dimethylsulfoxide (DMSO), bovine skin gelatin (BSG),), isopropyl-β-D-thiogalactopyranoside (IPTG), and Tris(2-carboxyethyl)phosphine hydrochloride solution (TCEP) were purchased from Sigma-Aldrich at the highest level of purity possible. ^3H-SAM was purchase from American Radiolabeled Chemicals with a specific activity of 80 Ci/mmol. 384-well streptavidin Flashplates were purchased from PerkinElmer.
Substrates. Peptide containing the classic RMT substrate motif was synthesized with an N-terminal linker-affinity tag motif and a C-terminal amide cap by 21st Century Biochemicals. The peptide was purified by high-performance liquid chromatography (HPLC) to greater than 95% purity and confirmed by liquid chromatography mass spectrometry (LC-MS). The sequence was Biot-Ahx-[…]-amide (SEQ ID NO.:11).
Molecular Biology: : Full-length human PRMT3 (NM_005788.3) isoform 1 transcript clone was amplified from an HEK 293 cDNA library and subcloned into pGEX-KG (GE Life Sciences). The resulting construct encodes an N-terminal GST tag and a thrombin cleavage sequence ([…] […] […] […]) (SEQ ID NO.:12) fused directly to Cys 2 of PRMT3.
Protein Expression. E. coli (BL21(DE3) Gold, Stratagene) made competent by the CaCl2 method were transformed with the PRMT3 construct and ampicillin selection. Protein over-expression was accomplished by growing the PRMT3 expressing E. coli clone and inducing expression with 0.3 mM IPTG at 16° C. The culture was grown for 12 hours, harvested by centrifugation, and stored at −80° C. for purification.
Protein Purification. […] GST-tagged PRMT3 eluted with 25-400 mM phosphate in buffer C. Protein was concentrated and buffer was exchanged to 20 mM Tris, 150 mM NaCl, 5% glycerol, 5 mM β-mercaptoethanol, pH7.8 by ultrafiltration. The purity of recovered protein was 70%.
(§2) General Procedure for PRMT3 Enzyme Assays on Peptide Substrates. The assays were all performed in a buffer consisting of 20 mM Bicine (pH=7.6), 1 mM TCEP, 0.005% BSG, and 0.002% Tween 20, prepared on the day of use. Compounds in 100% DMSO (1 ul) were spotted into a polypropylene 384-well V-bottom plates (Greiner) using a Platemate Plus outfitted with a 384-channel head (Thermo Scientific). DMSO (1 ul) was added to Columns 11, 12, 23, 24, rows A-H for the maximum signal control and 1 ul of SAH, a known product and inhibitor of PRMT3, was added to columns 11, 12, 23, 24, rows I-P for the minimum signal control. A cocktail (40 ul) containing the PRMT3 enzyme was added by Multidrop Combi (Thermo-Fisher). The compounds were allowed to incubate with PRMT3 for 30 min at room temperature, then a cocktail (10 ul) containing SAM and peptide was added to initiate the reaction (final volume=51 ul). The final concentrations of the components were as follows: PRMT3 was 0.5 nM, ^3H-SAM was 100 nM, non-radiolabeled SAM was 1.8 uM, peptide was 330 nM, SAH in the minimum signal control wells was 1 mM, and the DMSO concentration was 2%. The assays were stopped by the addition of potassium chloride (10 ul) to a final concentration of 100 mM. 50 ul of the reaction in the 384-well polypropylene plate was then transferred to a 384-well Flashplate and the biotinylated peptides were allowed to bind to the streptavidin surface for at least 1 hour before being washed once with 0.1% Tween20 in a Biotek ELx405 plate washer. The plates were then read in a PerkinElmer TopCount plate reader to measure the quantity of ^3H-labeled peptide bound to the Flashplate surface, measured as disintegrations per minute (dpm) or alternatively, referred to as counts per minute (cpm).
(§3) Where dpm=disintegrations per minute, cmpd=signal in assay well, and min and max are the respective minimum and maximum signal controls.
Where top and bottom are the normally allowed to float, but may be fixed at 100 or 0 respectively in a 3-parameter fit. […]

[1] = system: mono-methyl arginine in RKO cells; test: RKO methylation assay, In Cell Western for mono-methyl arginine and DNA content; format: cell-based; conditions: Homo sapiens; In Cell Western, RKO cells, 72 hours, percent activation of mono-methyl arginine signal; read-out: EC30
Source text: RKO adherent cells were purchased from ATCC (American Type Culture Collection), Manassas, Va., USA. DMEM/Glutamax medium, penicillin-streptomycin, heat inactivated fetal bovine serum, 0.05% trypsin and D-PBS were purchased from Life Technologies, Grand Island, N.Y., USA. Odyssey blocking buffer, 800CW goat anti-rabbit IgG (H+L) antibody, and Licor Odyssey infrared scanner were purchased from Licor Biosciences, Lincoln, Nebr., USA. Mono-methyl arginine antibody was purchased from Cell Signaling Technology, Danvers, Mass., USA. Methanol was purchased from VWR, Franklin, Mass., USA. 10% Tween 20 was purchased from KPL, Inc., Gaithersburg, Md., USA. […] was purchased from Biostatus Limited, Leicestershire, UK.
RKO adherent cells were maintained in growth medium (DMEM/Glutamax medium supplemented with 10% v/v heat inactivated fetal bovine serum and 100 units/mL penicillin-streptomycin) and cultured at 37° C. under 5% CO2
Cell Treatment, in Cell Western (ICW) for Detection of Mono-Methyl Arginine and DNA Content. […] Compound (100 nL) from a 96-well source plate was added directly to 384 well cell plate. Plates were incubated at 37° C., 5% CO2 for 72 hours. After three days of incubation, plates were brought to room temperature outside of the incubator for ten minutes and blotted on paper towels to remove cell media. 50 μL of ice cold 100% methanol was added directly to each well and incubated for 30 min at room temperature. After 30 min, plates were transferred to a Biotek EL406 plate washer and washed 2 times with 100 μL per well of wash buffer (1×PBS). Next 60 μL per well of Odyssey blocking buffer (Odyssey Buffer with 0.1% Tween 20 (v/v)) were added to each plate and incubated 1 hour at room temperature. Blocking buffer was removed and 20 μL per well of primary antibody was added (mono-methyl arginine diluted 1:200 in Odyssey buffer with 0.1% Tween 20 (v/v)) and plates were incubated overnight (16 hours) at 4° C. Plates were washed 5 times with 100 μL per well of wash buffer. […] The plates were washed 5 times with 100 μL per well wash buffer then 2 times with 100 μL per well of water. Plates were allowed to dry at room temperature then imaged on the Licor Odyssey machine which measures integrated intensity at 700 nm and 800 nm wavelengths. Both 700 and 800 channels were scanned.
Calculations: First, the ratio for each well was determined by:
Each plate included fourteen control wells of DMSO only treatment (minimum activation) as well as fourteen control wells for maximum activation treated with 20 μM of a reference compound. The average of the ratio values for each control type was calculated and used to determine the percent activation for each test well in the plate. Reference compound was serially diluted three-fold in DMSO for a total of nine test concentrations, beginning at 20 μM. Percent activation was determined and EC30 curves were generated using triplicate wells per concentration of compound.

[2] = target: T2, Full-length human PRMT1 isoform 1 (Homo sapiens, UniProt Q99873); test: PRMT1 biochemical assay (3H-SAM Flashplate, peptide substrate)
T2 construct: GST-tagged PRMT1; made in house; host or cells: High Five insect cells (baculovirus, pFastBacI)
T2 sequence (Q99873 with tags, fused parts or gaps): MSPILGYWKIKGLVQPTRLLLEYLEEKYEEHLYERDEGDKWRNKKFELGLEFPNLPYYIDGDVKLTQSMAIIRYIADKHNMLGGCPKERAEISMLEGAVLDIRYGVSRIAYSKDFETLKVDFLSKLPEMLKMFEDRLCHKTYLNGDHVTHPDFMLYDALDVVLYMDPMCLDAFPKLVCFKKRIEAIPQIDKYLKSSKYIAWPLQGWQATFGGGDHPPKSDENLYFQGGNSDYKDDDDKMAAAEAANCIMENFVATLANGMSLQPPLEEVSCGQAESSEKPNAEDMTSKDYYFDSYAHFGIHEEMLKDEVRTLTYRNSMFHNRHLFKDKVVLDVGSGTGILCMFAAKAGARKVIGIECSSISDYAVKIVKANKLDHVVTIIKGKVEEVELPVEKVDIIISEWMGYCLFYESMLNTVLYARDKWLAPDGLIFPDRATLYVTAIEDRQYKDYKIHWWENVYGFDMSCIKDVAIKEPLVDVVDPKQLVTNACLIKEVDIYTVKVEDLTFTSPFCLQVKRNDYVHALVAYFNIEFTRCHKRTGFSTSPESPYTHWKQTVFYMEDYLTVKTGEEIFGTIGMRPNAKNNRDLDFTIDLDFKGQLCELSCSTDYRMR
Source text: as §1, with “(BSG),” for “(BSG),), isopropyl-β-D-thiogalactopyranoside (IPTG),”
Protein Expression. Recombinant baculovirus were generated according to Bac-to-Bac kit instructions (Life Technologies). […] Infections were carried out at 27° C. for 48 hours, harvested by centrifugation, and stored at −80° C. for purification.
Protein Purification. […] GST-tagged PRMT1 was eluted with 50 mM Tris, 2 mM glutathione, pH 7.8, dialysed in buffer A and concentrated to 1 mg/mL.
as §2, with “PRMT1” for “PRMT3”, “Compounds in 100% DMSO (1 ul) were spotted into a polypropylene 384-well V-bottom plates (Greiner) using a Platemate Plus outfitted with a 384-channel head (Thermo Scientific).” left out, “PRMT1,” for “PRMT3,”, “The final concentrations of the components were as follows: PRMT3 was 0.5 nM, ^3H-SAM was 100 nM, non-radiolabeled SAM was 1.8 uM, peptide was 330 nM, SAH in the minimum signal control wells was 1 mM, and the DMSO concentration was 2%.” left out, “non-radiolabeled SAM” for “potassium chloride”, “300 uM, which dilutes the ^3H-SAM to a level where its incorporation into the peptide substrate is no longer detectable.” for “100 mM.”
as §3
(§4) Where top and bottom are the normally allowed to float, but may be fixed at 100 or 0 respectively in a 3-parameter fit. The Hill Coefficient normally allowed to float but may also be fixed at 1 in a 3-parameter fit. Y is the % inhibition and X is the compound concentration.

Full-length human PRMT6 = target: T3, Full-length human PRMT6 (Homo sapiens, UniProt Q96LA8); test: PRMT6 biochemical assay (3H-SAM Flashplate, peptide substrate)
T3 construct: Flag-PRMT6-His was eluted with 200 ug/ml FLAG peptide in the same buffer; made in house; host or cells: HEK 293F cells (BacMam virus, pFastBacMam)
T3 sequence (Q96LA8 with tags, fused parts or gaps): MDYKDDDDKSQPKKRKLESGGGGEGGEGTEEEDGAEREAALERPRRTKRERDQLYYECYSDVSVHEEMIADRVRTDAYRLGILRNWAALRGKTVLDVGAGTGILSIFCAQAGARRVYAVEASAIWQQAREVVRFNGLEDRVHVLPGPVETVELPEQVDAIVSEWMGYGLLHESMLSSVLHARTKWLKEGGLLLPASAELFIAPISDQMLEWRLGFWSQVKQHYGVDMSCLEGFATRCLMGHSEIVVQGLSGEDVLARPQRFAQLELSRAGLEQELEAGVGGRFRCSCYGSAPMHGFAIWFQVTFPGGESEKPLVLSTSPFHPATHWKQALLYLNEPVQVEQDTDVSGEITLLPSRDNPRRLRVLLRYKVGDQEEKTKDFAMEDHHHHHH
Source text: as §1, with “(BSG), sodium butyrate” for “(BSG),), isopropyl-β-D-thiogalactopyranoside (IPTG),”
Substrates. Peptide representative of human histone H4 residues 36-50 was synthesized with an N-terminal linker-affinity tag motif and a C-terminal amide cap by 21st Century Biochemicals.
The amplified gene was subcloned into pFastBacMam (Viva Biotech).
Protein Expression. Recombinant baculovirus were generated according to Bac-to-Bac kit instructions (Life Technologies). […] Infections were carried out at 37° C. for 48 hours, harvested by centrifugation, and stored at −80° C. for purification.
Protein Purification. […] Column was washed with 20 mM imidazole in the same buffer and Flag-PRMT6-His was eluted with 150 mM imidazole. Pooled fractions were dialysed against buffer Ni-A and further purified by anti-flag M2 affinity chromatography. Flag-PRMT6-His was eluted with 200 ug/ml FLAG peptide in the same buffer. Pooled fractions were dialysed in 20 mM Tris, 150 mM NaCl, 10% glycerol and 5 mM β-mercaptoethanol, pH 7.8.
as §2, with “PRMT6” for “PRMT3”, “Compounds in 100% DMSO (1 ul) were spotted into a polypropylene 384-well V-bottom plates (Greiner) using a Platemate Plus outfitted with a 384-channel head (Thermo Scientific).” left out, “PRMT6,” for “PRMT3,”, “The final concentrations of the components were as follows: PRMT3 was 0.5 nM, ^3H-SAM was 100 nM, non-radiolabeled SAM was 1.8 uM, peptide was 330 nM, SAH in the minimum signal control wells was 1 mM, and the DMSO concentration was 2%.” left out, “non-radiolabeled SAM” for “potassium chloride”, “400 uM, which dilutes the ^3H-SAM to a level where its incorporation into the peptide substrate is no longer detectable.” for “100 mM.”
as §3, §4

T1 sequence (O60678 with tags, fused parts or gaps): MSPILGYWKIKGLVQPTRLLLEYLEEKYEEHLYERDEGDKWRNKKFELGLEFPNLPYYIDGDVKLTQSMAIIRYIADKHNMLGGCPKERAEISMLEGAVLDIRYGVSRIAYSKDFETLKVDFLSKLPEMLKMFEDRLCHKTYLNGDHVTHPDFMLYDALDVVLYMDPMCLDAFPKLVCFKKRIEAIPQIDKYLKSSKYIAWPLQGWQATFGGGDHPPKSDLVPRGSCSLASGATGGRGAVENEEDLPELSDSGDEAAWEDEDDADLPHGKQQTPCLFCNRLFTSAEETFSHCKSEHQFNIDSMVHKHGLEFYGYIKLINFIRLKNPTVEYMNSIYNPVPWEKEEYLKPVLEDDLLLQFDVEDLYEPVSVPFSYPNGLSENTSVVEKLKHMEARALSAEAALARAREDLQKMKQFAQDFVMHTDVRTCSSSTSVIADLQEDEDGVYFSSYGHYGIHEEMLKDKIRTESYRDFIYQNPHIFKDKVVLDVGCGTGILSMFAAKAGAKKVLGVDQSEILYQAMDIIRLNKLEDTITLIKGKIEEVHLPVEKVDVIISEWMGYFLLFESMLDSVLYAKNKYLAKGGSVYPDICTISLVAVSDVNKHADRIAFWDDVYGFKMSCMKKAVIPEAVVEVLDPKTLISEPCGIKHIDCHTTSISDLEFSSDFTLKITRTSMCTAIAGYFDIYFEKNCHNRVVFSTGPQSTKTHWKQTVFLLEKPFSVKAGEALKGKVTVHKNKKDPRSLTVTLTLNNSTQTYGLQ

Work on `CC(C)Cc1ccc(-c2n[nH]cc2CN(C)CCN)cc1` [Compound 165] yielded an IC50 (Full-length human PRMT3) of 1010 to 3000 nM and an EC30 [1] of under 3000 nM.

For `CNCCN(C)Cc1c[nH]nc1-c1cc(CC(C)C)cc(CC(C)C)c1` [Compound 281], the IC50 [2] was under 100 nM, the IC50 (Full-length human PRMT6) was 101 to 1000 nM and the EC30 [1] was 3010 to 12000 nM.

For `CNCCN(C)Cc1c[nH]nc1-c1cc(Cl)c(OCC2CC2)c(Cl)c1` [Compound 282], the IC50 [2] was under 100 nM, the IC50 (Full-length human PRMT6) was under 100 nM and the EC30 [1] was under 3000 nM.
